Patent US6392055B1, “Synthesis and biological evaluation of analogs of the antimitotic marine natural product curacin A” (The University of Pittsburgh, priority 2000, dated 2002)
Where two headings read alike, the source gives them in different places.

Key:
PC-3 cells = assay: Growth inhibition of prostate carcinoma cells (MTS); assay type: cell-based, human
[1] = tested on: tubulin (colchicine site); assay: Inhibition of [3H]colchicine binding to tubulin; set-up: species or system bovine; settings: for % CBI 5 μM, (30° C.) / % CBI 50 μM, (30° C.): 30° C. (values in parentheses); for displacement of pre-bound [3H]colchicine from tubulin, 30° C. / displacement of pre-bound [3H]colchicine from tubulin, 37° C.: equimolar (5 μM) concentration; for IC50: 5 μM [3H]colchicine, 1 μM tubulin
Method: Assays to determine whether 15mix-17mix inhibited binding of [^3H]colchicine to tubulin at both 30° C. and 37° C. were performed. This was accomplished using methods described previously. Kang, G.-J.; Getahun, Z.; Muzaffar, A.; Brossi, A.; Hamel, E. J. Biol. Chem. 1990, 265, 10255; Verdier-Pinard, P.; Lai, J.-Y.; Yoo, H.-D.; Yu, J.; Marquez, B.; Nagle, D. G.; Nambu, M.; White, J. D.; Falck, J. R.; Gerwick, W. H.; Day, B. W.; Hamel, E. Mol. Pharmacol. 1998, 53, 62. Briefly, 5 μM [^3H]colchicine (2.3 TBq/mmol), drug (1, 5, 10, 50, or 250 μM), or vehicle (DMSO, 5% v/v) were incubated at 30° C. for 15 minutes or at 37° C. for 10 minutes with 1 μM tubulin in the presence of 1 M monosodium glutamate, 0.1 M glucose-1-phosphate, 1 mM MgCl2, 1 mM GTP, and 0.5 mg/mL bovine serum albumin. The solutions were filtered through two stacks of DEAE-cellulose filters and the radioactivity in the filtrate was determined by scintillation spectrometry. Each series of determinations included positive controls of 1, 5, and/or 50 μM curacin A.

MDA-MB231 cells = assay: Growth inhibition of breast carcinoma cells (MTS); assay type: cell-based, human
2008 cells = assay: Growth inhibition of ovarian carcinoma cells (MTS); assay type: cell-based, human
[2] = tested on: isolated bovine brain tubulin; assay: Inhibition of GTP/glutamate-induced tubulin polymerization (turbidimetric, 30° C.); assay type: biochemical
[3] = tested on: MCF-7 human breast carcinoma cells; assay: Mitotic index by immunofluorescence of phosphorylated core histone; assay type: cell-based; settings: tested over 0.49 nM to 0.1 μM, 14 hours
Method: Further verification of the biological activity of compounds 17a-e was obtained in living tumor cells by quantifying their effect on mitotic index, essentially, counting the number of cells in the mitotic phase of the cell cycle. Antimitotic compounds increase the mitotic index, which can be quantified immunohistochemically using an antibody to a mitosis-specific phosphorylated core histone protein. MCF-7 human breast carcinoma cells were treated with increasing concentrations of compounds 17a-e (7.8-1000 nM), curacin A (3.1-400 nM), and vinblastine (0.08-10 nM) for 14-16 hours. The morphology of the cellular nuclei and the mircrotubule cytoskeleton, as well as the phosphorylation of a core histone protein, were visualized using a multiparameter immunofluorescence approach. […] Compound 17b induced cell rounding and the generalized loss of structured microtubules in the same cells. The mitotic index in drug-treated cells was measured. To assess the relative activity of compounds 17a-e and two known microtubule disrupting drugs, vinblastine and curacin A, the minimum effective concentration of each drug was measured.
Phosphorylation of histone H3 occurs during mitosis and is linked to chromosome condensation. Thus, antimitotic agents cause an accumulation of cells containing […]. Wei, Y.; Mizzen, C. A.; Cook, R. G.; Gorovsky, M. A.; Allis, C. D. Proc. Natl Acad. Sci. USA 1998, 95, 7480. MCF-7 human breast carcinoma cells were treated with increasing concentrations (0.0075-15 μM) of 17mix and 17a-e for 14 hours and mitotic index quantities automatically. […] Vinblastine, a classic mitotic inhibitor, was tested over a range of 0.49 nM to 0.1 μM and caused a maximum accumulation of adherent cells in mitosis of 26%.

[4] = 96 h, read-out: GI50 PC3 (prostate) 96 h
[5] = read-out: GI50 PC3 (prostate) 48 h, 48 h
[6] = 96 h, read-out: GI50 MDA-MB231 (breast) 96 h
[7] = read-out: GI50 MDA-MB231 (breast) 48 h, 48 h
[8] = 96 h, read-out: GI50 2008 (ovarian) 96 h
[9] = read-out: GI50 2008 (ovarian) 48 h, 48 h
[10] = read-out: GI50 prostate (PC3), 48 hours of continuous drug exposure, 48 hours continuous exposure
[11] = read-out: GI50 breast (MDA-MB231), 48 hours of continuous drug exposure, 48 hours continuous exposure
[12] = read-out: GI50 ovarian (2008), 48 hours of continuous drug exposure, 48 hours continuous exposure
[13] = 30° C. turbidimetric assay, N=2 over 4 concentrations, read-out: IC50, inhibition of GTP/glutamate-induced assembly of tubulin

Compound | GI50 (PC-3 cells; [4]) | GI50 (PC-3 cells; [5]) | % CBI 5 μM, (30° C.) ([1]; 5 μM compound) | % CBI 5 μM, 37° C. ([1]; 5 μM compound) | % CBI 50 μM, (30° C.) ([1]; 50 μM compound) | % CBI 50 μM, 37° C. ([1]; 50 μM compound) | GI50 (MDA-MB231 cells; [6]) | GI50 (MDA-MB231 cells; [7]) | GI50 (2008 cells; [8]) | GI50 (2008 cells; [9]) | % TPI 5 μM ([2]; 5 μM compound) | GI50 (PC-3 cells; [10]) | displacement of pre-bound [3H]colchicine from tubulin, 30° C. [1] | displacement of pre-bound [3H]colchicine from tubulin, 37° C. [1] | GI50 (MDA-MB231 cells; [11]) | GI50 (2008 cells; [12]) | IC50 [2, 13] | further results
C=CCC(CCC(C)=CC=CCCC=CC1COC(C=Cc2ccccc2)=N1)OC (stereo not shown) [JRC5] | 28000 ± 1000 nM | 30000 ± 6000 nM | (9 ± 6) % | 1 ± 12% | (−220 ± 16) % | −89 ± 7% | 5800 ± 3600 nM | 14000 ± 3000 nM | 23000 ± 2000 nM | 17000 ± 3000 nM | 29% |  |  |  |  |  |  | 
C=CC[C@@H](CC[C@@]1(C)C[C@H]1[C@H]1C[C@@H]1CC/C=C\[C@@H]1COC([C@@H]2C[C@@H]2C)=N1)OC [JRCPOX] | 24000 ± 1000 nM | 49000 ± 1000 nM | (−142 ± 59) % | −8 ± 11% | (−205 ± 17) % | −74 ± 19% | 24000 nM | 18000 ± 4000 nM | 23000 ± 1000 nM | 18000 ± 4000 nM | 83% |  |  |  |  |  |  | 
COc1cc(/C=N\OC/C=C/C=C(\C)CCC(O)c2cccs2)cc(OC)c1OC (stereo not shown) [JRoxime1] | 530 ± 390 nM | 250 nM | (48 ± 12) % | 53 ± 2.2% | (57 ± 15) % | 37 ± 8% | 380 ± 200 nM | 120 ± 100 nM | 340 ± 290 nM | 240 ± 180 nM | 100% | 250 ± 80 nM | 48±12% | 53±2% | 120 ± 100 nM | 240 ± 180 nM | 170 ± 90 nM | 
COc1cc(C=NOCC2CC2CCC(C)c2cccs2)cc(OC)c1OC (stereo not shown) [JRoxime3] | > 50000 nM | > 50000 nM | (−10 ± 10) % | −30 ± 6% | (18 ± 6) % | −30 ± 7% | > 50000 nM | > 50000 nM | > 50000 nM | > 50000 nM | 3% |  |  |  |  |  |  | 
CC[C@]1(O)C[C@@H]2CN(CCc3c([nH]c4ccccc34)[C@@](C(=O)OC)(c3cc4c(cc3OC)N(C)[C@H]3[C@@](O)(C(=O)OC)[C@H](OC(C)=O)[C@]5(CC)C=CCN6CC[C@]43[C@@H]65)C2)C1 [Vinblastine, vinblastine, reference compound] |  |  |  |  |  |  |  |  |  |  |  |  |  |  |  |  |  | maximum accumulation of adherent cells in mitosis [3]: 26%
C=CC[C@@H](CC/C(C)=C/C=C/CC/C=C\[C@@H]1CSC([C@@H]2C[C@@H]2C)=N1)OC [curacin A] |  |  | (78 ± 2) % | 87 ± 9% | (99 ± 1) % | 97 ± 0% |  |  |  |  | 98% | 50 ± 9 nM | 78±2% | 87±9% | 96 ± 60 nM | 35 ± 7 nM | 520 ± 210 nM | GI50 (PC-3 cells; 96 h, Table II prints no unit, read-out: GI50 PC3 96 h): 48 ± 8 nM; GI50 (PC-3 cells; read-out: GI50 PC3 48 h, 48 h, Table II prints no unit): 50 ± 9 nM; GI50 (PC-3 cells; read-out: GI50 PC-3 (48 h), 48 h): 50 ± 9 nM; Percent Colchicine Binding Inhibition (CBI), 5 μM ([1]; 5 μM compound): 84.9 ± 1.07 %; Percent Colchicine Binding Inhibition (CBI), 5 μM, re-test value ([1]; 5 μM compound, re-test (in parentheses)): (95.0 ± 0.7*) %; Percent Colchicine Binding Inhibition (CBI), 50 μM ([1]; 50 μM compound): 96.2 ± 0.7 %; Percent Colchicine Binding Inhibition (CBI), 50 μM, re-test value ([1]; 50 μM compound, re-test (in parentheses)): (97.7 ± 0.0*) %; IC50 ([1]; incubation at 30° C. for 15 minutes, read-out: 50% Colchicine Binding Inhibitory Concentration (CBI), 30° C.): 900 ± 300 nM; IC50 ([1]; incubation at 37° C. for 10 minutes, read-out: 50% Colchicine Binding Inhibitory Concentration (CBI), 37° C.): 600 ± 100 nM; GI50 (MDA-MB231 cells; 96 h, Table II prints no unit, read-out: GI50 MDA 96 h): 64 ± 7 nM; GI50 (MDA-MB231 cells; read-out: GI50 MDA 48 h, 48 h, Table II prints no unit): 186 ± 226 nM; GI50 (MDA-MB231 cells; read-out: GI50 MDA-MB231 (48 h), 48 h): 96 ± 60 nM; GI50 (2008 cells; 96 h, Table II prints no unit, read-out: GI50 2008 96 h): 26 ± 12 nM; GI50 (2008 cells; read-out: GI50 2008 48 h, 48 h, Table II prints no unit): 35 ± 7 nM; GI50 (2008 cells; read-out: GI50 2008 (48 h), 48 h): 35 ± 7 nM; Percent Tubulin Polymerization Inhibition (TPI), 5 μM ([2]; 5 μM compound): 97.9%; IC50 ([2]; read-out: 50% Tubulin Polymerization Inhibition Concentration (TPI) IC50, 30° C., 10 μM tubulin): 780 ± 70 nM
